Patent publication US8759480B2, “Contoxin analogues and methods for synthesis of intramolecular dicarba bridge-containing peptides” (Syngene Limited, priority 2006, dated 2014)

Test system: neuronal-type nicotinic receptors
Type: cell-based, bovine

CN1CCCC1c1cccnc1 (stereo not shown) [NICOTINE, nicotine, reference compound]
Adrenaline Release 1st: 4.31% | Adrenaline Release 2nd: 4.52% | Adrenaline Release 3rd: 4.52% | Adrenaline Release 4th: 4.48% | Adrenaline Release % control: 100.000% | Adrenaline Release mean: 4.46% | Noradrenaline Release 1st: 6.62% | Noradrenaline Release 2nd: 6.89% | Noradrenaline Release 3rd: 6.99% | Noradrenaline Release 4th: 6.89% | Noradrenaline Release % control: 100.000% | Noradrenaline Release mean: 6.85% | noradrenaline released, basal release (0.72%) subtracted: 6.13%
